Measured values from patent publication US4869900A, “Pharamaceutical composition containing ubidecarenone” (Zambon S.p.A., priority 1985, dated 1989).

Key:
[1] = Stability of CoQ10 in the compositions (one year at 30° C.); format: physicochemical; conditions: after one year at 30° C., in the compositions or pharmaceutical preparations according to the invention
[2] = test system: cardiac affections such as cardiac deficiency, ischemic disease; conditions: treatment of several cardiac affections such as cardiac deficiency; cited from earlier work
[3] = takes place through the lymphatic system; cited from earlier work

degradation of CoQ10 [1]: no degradation
Compound: COC1=C(OC)C(=O)C(C/C=C(\C)CC/C=C(\C)CC/C=C(\C)CC/C=C(\C)CC/C=C(\C)CC/C=C(\C)CC/C=C(\C)CC/C=C(\C)CC/C=C(\C)CCC=C(C)C)=C(C)C1=O [CoQ10, Coenzyme Q10]
clinical effectiveness [2]: clinically effective | absorption [3]: scarce
